The experiment has as its target T1, recombinant human AMPK complex, containing α2β1γ2 (Homo sapiens, UniProt P54646+Q9Y478).
T1 construct: hsAMPKα2-552-His, hsAMPKβ1-2-270 and hsAMPKγ-2-569 respectively; hsAMPKβ1-2-270; hsAMPKγ-2-569; His (C); made in house; host or cells: Spodoptera frugiperda Sf21 (baculovirus)
Briefly: AMPK in vitro activation assay (HTRF). In kind it is biochemical. The settings on record: for EC50: HTRF, recombinant human α2β1γ2 AMPK, 200 μM ATP, biotinylated ACC-CREBp peptide, repeat determinations on separate lines. As for the experimental part: The recombinant human AMPK complex, containing α2β1γ2 was obtained from baculovirus expression system and generated by cotransfection in Spodoptera frugiperda 21 (Sf21). […] were produced in serum free medium (SF900 II, Invitrogen) for 82 hours after a triple infection at a multiplicity of infection (M.O.I.) of 0.05, 0.06 and 0.045 for hsAMPKα2-552-His, hsAMPKβ1-2-270 and hsAMPKγ-2-569 respectively. Cells were harvested by centrifugation at 1,000×g for 10 minutes at 4° C. and stored at −80° C. The insect cell pellet from 8 liters of culture was resuspended and homogenized in 580 ml of lysis buffer (20 mM Hepes pH 7.5, 150 mM NaCl, 10 mM imidazole, 50 mM NaF, 10% Glycerol and supplemented with EDTA free proteases inhibitor cocktail Roche). The AMPK complex was partially purified using an affinity chromatography under a Ni-NTA Agarose column equilibrated in the lysis buffer and eluted with a gradient (0 to 400 mM) of Imidazol.
A homogeneous time-resolved fluorescence (HTRF) assay was used (Li et al, Anal. Biochem. (2003) 321, 151-156) to identify compounds with stimulating activity for the recombinant human AMPK. Enzyme reaction was performed into a 96-well microtiter plate. First, 20 μL of test compounds in 0.5% DMSO were dispensed followed by 10 μL of protein in 50 mM HEPES buffer at pH 7.0, 100 mM NaCl, 5 mM MgCl2, 0.01% BSA, 0.8 mM DTT. After, 30 min incubation at room temperature, the reaction was initiated by the addition of 10 μL of a solution containing 200 μM of ATP as donor substrate, 2 μM or 0.08 μM of biotinylated ACC-CREBp peptide (PolyPeptide) as acceptor. Plates were then incubated 45 min at 37° C. The reaction was terminated by the addition of 40 μl detection mixture containing Eu^3+ cryptate-conjugated anti-pS^133-CREB antibody and streptavidine-XL665 (CisBio). Plates were further incubated for 2 h30 at room temperature. The fluorescence signal was measured using an Envision multireader (Perkin Elmer). The non-specific signal was obtained without substrates. Potentiation of AMPK activity was expressed as a percent over the basal signal (without compound) from which an EC50 value was determined.
The EC50 of a graded dose response curve represents the concentration of a compound where 50% of its maximal effect is observed.
In general terms: Time-resolved FRET reads energy transfer from a long-lived donor to a nearby acceptor.

Where [1] appears, read: potentiation of AMPK activity as percent over the basal signal (without compound).

As usually defined, the EC50 is the concentration needed to bring the measured effect to its halfway point. What is called Emax is the maximal effect, on the per cent scale that the assay sets.

T1 sequence (P54646 2-552): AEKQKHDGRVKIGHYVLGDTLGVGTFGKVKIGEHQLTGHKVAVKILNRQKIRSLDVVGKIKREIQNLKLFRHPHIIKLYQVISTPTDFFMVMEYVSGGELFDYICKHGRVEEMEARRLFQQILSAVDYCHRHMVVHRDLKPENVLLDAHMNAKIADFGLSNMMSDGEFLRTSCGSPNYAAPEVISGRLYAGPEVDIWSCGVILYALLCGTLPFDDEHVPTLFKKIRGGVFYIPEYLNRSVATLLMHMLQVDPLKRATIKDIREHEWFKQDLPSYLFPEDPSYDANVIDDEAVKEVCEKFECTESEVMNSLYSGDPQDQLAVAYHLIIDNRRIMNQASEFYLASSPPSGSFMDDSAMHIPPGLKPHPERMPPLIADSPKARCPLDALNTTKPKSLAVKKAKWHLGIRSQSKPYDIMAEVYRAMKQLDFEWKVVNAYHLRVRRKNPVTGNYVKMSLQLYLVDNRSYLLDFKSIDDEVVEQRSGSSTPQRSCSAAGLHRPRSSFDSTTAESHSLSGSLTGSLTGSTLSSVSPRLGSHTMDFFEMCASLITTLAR
T1 sequence (Q9Y478 2-270): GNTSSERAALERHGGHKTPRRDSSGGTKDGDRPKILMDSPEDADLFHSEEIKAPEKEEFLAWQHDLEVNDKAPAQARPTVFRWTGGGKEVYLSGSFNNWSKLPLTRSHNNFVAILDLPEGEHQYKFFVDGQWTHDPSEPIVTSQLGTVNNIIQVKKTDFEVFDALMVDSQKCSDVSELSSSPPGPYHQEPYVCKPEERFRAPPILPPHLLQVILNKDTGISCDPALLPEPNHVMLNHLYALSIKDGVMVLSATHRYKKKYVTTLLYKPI
T1 sequence (Q9UGJ0 2-569 partner limits assumed): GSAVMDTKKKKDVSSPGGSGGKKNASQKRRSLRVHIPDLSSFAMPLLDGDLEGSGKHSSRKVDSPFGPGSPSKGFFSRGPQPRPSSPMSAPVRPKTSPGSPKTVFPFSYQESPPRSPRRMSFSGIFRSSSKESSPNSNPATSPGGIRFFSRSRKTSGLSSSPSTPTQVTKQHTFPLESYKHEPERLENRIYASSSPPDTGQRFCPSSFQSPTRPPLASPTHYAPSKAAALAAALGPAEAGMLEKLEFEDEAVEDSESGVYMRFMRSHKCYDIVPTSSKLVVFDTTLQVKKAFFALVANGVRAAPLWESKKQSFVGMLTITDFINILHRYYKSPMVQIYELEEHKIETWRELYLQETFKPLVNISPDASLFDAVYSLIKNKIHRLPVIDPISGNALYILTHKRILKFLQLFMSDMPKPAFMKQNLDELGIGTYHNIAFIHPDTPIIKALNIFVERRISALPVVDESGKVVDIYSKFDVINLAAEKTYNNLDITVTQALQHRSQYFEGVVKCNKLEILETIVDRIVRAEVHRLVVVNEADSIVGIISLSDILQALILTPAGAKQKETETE

With `Cc1cc(C(O)=C2C(=O)Nc3cc(Cl)c(-c4ccc(C#N)cc4)cc32)on1` [Compound 38, 4-{6-Chloro-3-[1-hydroxy-1-(3-methyl-isoxazol-5-yl)-methylidene]-2-oxo-2,3-dihydro-1H-indol-5-yl}-benzonitrile], the EC50 came to 0.7 µM. Also, the Emax under setting [1] was 133%.

As to `O=C1Nc2cc(Cl)c(-c3ccc(N4CCOCC4)cc3)cc2C1=C(O)c1cccc(C(F)F)c1` [Compound 39, 6-Chloro-3-[1-(3-difluoromethyl-phenyl)-1-hydroxy-methylidene]-5-(4-morpholin-4-yl-phenyl)-1,3-dihydro-indol-2-one], the EC50 came out at 0.62 µM. Moreover, the Emax under setting [1] was 168%.

Turning to `O=C1Nc2cc(Cl)c(-c3ccc(N4CCOCC4)cc3)cc2C1=C(O)c1cccc(C(F)(F)F)c1` [Compound 40, 6-Chloro-3-[1-hydroxy-1-(3-trifluoromethyl-phenyl)-methylidene]-5-(4-morpholin-4-yl-phenyl)-1,3-dihydro-indol-2-one], the EC50 came out at 0.72 µM. In addition, under setting [1], the Emax worked out at 121%.

Regarding `O=C1Nc2cc(Cl)c(-c3ccc(N4CCOCC4)cc3)cc2C1=C(O)c1cc(Br)no1` [Compound 41, 3-[1-(3-Bromo-isoxazol-5-yl)-1-hydroxy-methylidene]-6-chloro-5-(4-morpholin-4-yl-phenyl)-1,3-dihydro-indol-2-one], the EC50 worked out at 0.003 µM. Under setting [1], the Emax came to 115%.

On to `COc1cccc(-c2ccc(-c3cc4c(cc3Cl)NC(=O)C4=C(O)c3cc(C)ns3)cc2)c1O` [Compound 42, 6-Chloro-5-(2′-hydroxy-3′-methoxy-biphenyl-4-yl)-3-[1-hydroxy-1-(3-methyl-isothiazol-5-yl)-methylidene]-1,3-dihydro-indol-2-one], for which the EC50 was 0.027 µM. Besides, the Emax under setting [1] worked out at 132%.

Regarding `O=C1Nc2cc(Cl)c(-c3ccc(N4CCOCC4)cc3)cc2C1=C(O)c1ccccc1` [Compound 43, 6-Chloro-3-[1-hydroxy-1-phenyl-methylidene]-5-(4-morpholin-4-yl-phenyl)-1,3-dihydro-indol-2-one], the EC50 worked out at 0.22 µM. Under setting [1], the Emax was found to be 170%.

For `Cc1cc(C(O)=C2C(=O)Nc3cc(Cl)c(-c4ccc(O)c(F)c4)cc32)on1` [Compound 44, 6-Chloro-5-(3-fluoro-4-hydroxy-phenyl)-3-[1-hydroxy-1-(3-methyl-isoxazol-5-yl)-methylidene]-1,3-dihydro-indol-2-one], the EC50 was 0.47 µM. Also, under setting [1], the Emax was determined as 165%.

`Cc1cc(C(O)=C2C(=O)Nc3cc(Cl)c(-c4ccc(C5(CO)CC5)s4)cc32)on1` [Compound 45, 6-Chloro-5-[5-(1-hydroxymethyl-cyclopropyl)-thiophen-2-yl]-3-[1-hydroxy-1-(3-methyl-isoxazol-5-yl)-methylidene]-1,3-dihydro-indol-2-one]: the EC50 was determined as 0.23 µM. For the same compound, the Emax under setting [1] is 155%.

Turning to `O=C1Nc2cc(Cl)c(-c3ccc(C4(CO)CC4)cc3)cc2C1=C(O)c1ccccc1F` [Compound 46, 6-Chloro-3-[1-(2-fluoro-phenyl)-1-hydroxy-methylidene]-5-[4-(1-hydroxymethyl-cyclopropyl)-phenyl]-1,3-dihydro-indol-2-one], the EC50 is 0.006 µM. For the same compound, under setting [1], the Emax was determined as 95%.

In the case of `O=C1Nc2cc(Cl)c(-c3ccc(C4(CO)CC4)cc3)cc2C1=C([O-])c1ccccc1F.[Na+]` [Compound 47, 6-Chloro-3-[1-(2-fluoro-phenyl)-1-hydroxy-methylidene]-5-[4-(1-hydroxymethyl-cyclopropyl)-phenyl]-1,3-dihydro-indol-2-one, sodium salt], the EC50 was 0.025 µM. For the same compound, the “α2β1γ2 AMPK Emax” value under setting [1] was “(94) %”.

For `Cc1cc(C(O)=C2C(=O)Nc3cc(Cl)c(-c4ccc(C5=CCOCC5)cc4)cc32)sn1` [Compound 48, 6-Chloro-5-[4-(3,6-dihydro-2H-pyran-4-yl)-phenyl]-3-[1-hydroxy-1-(3-methyl-isothiazol-5-yl)-methylidene]-1,3-dihydro-indol-2-one], the EC50 was found to be 0.095 µM. Besides, the Emax under setting [1] was found to be 87%.

As to `COc1cccc(C(O)=C2C(=O)Nc3cc(Cl)c(-c4ccc(N5CCOCC5)cc4)cc32)c1` [Compound 50, 6-Chloro-3-[1-hydroxy-1-(3-methoxy-phenyl)-methylidene]-5-(4-morpholin-4-yl-phenyl)-1,3-dihydro-indol-2-one], the EC50 came to 0.04 µM.

As to `COc1cccc(-c2ccc(-c3cc4c(cc3Cl)NC(=O)C4=C(O)c3cnc(C)s3)cc2)c1O` [Compound 51, 6-Chloro-5-(2′-hydroxy-3′-methoxy-biphenyl-4-yl)-3-[1-hydroxy-1-(2-methyl-thiazol-5-yl)-methylidene]-1,3-dihydro-indol-2-one], the EC50 was found to be 0.011 µM. Further, the Emax under setting [1] worked out at 129%.

For `O=C1Nc2cc(Cl)c(-c3ccc(C4=CCOCC4)cc3)cc2C1=C(O)c1cccc(F)c1` [Compound 52, 6-Chloro-5-[4-(3,6-dihydro-2H-pyran-4-yl)-phenyl]-3-[1-(3-fluoro-phenyl)-1-hydroxy-methylidene]-1,3-dihydro-indol-2-one], the EC50 amounted to 0.12 µM. Besides, under setting [1], the Emax came to 147%.

Regarding `Cn1ccc(C(O)=C2C(=O)Nc3cc(Cl)c(-c4ccc(N5CCOCC5)cc4)cc32)n1` [Compound 53, 6-Chloro-3-[1-hydroxy-1-(1-methyl-1H-pyrazol-3-yl)-methylidene]-5-(4-morpholin-4-yl-phenyl)-1,3-dihydro-indol-2-one], the EC50 is 1.71 µM. The Emax under setting [1] was determined as 180%.

Consider `COc1ccc(-c2cc3c(cc2Cl)NC(=O)C3=C(O)c2cc(C)no2)cc1F` [Compound 55, 6-Chloro-5-(3-fluoro-4-methoxy-phenyl)-3-[1-hydroxy-1-(3-methyl-isoxazol-5-yl)-methylidene]-1,3-dihydro-indol-2-one], for which the EC50 came to 0.43 µM. Under setting [1], the Emax was 174%.

For `Cc1cc(C(O)=C2C(=O)Nc3cc(Cl)c(-c4ccc(F)cc4O)cc32)on1` [Compound 56, 6-Chloro-5-(4-fluoro-2-hydroxy-phenyl)-3-[1-hydroxy-1-(3-methyl-isoxazol-5-yl)-methylidene]-1,3-dihydro-indol-2-one], the EC50 turned out to be 0.15 µM. Besides, the Emax under setting [1] turned out to be 189%.

With `Cc1cc(C(O)=C2C(=O)Nc3cc(Cl)c(-c4ccc(OC(F)(F)F)cc4)cc32)on1` [Compound 58, 6-Chloro-3-[1-hydroxy-1-(3-methyl-isoxazol-5-yl)-methylidene]-5-(4-trifluoromethoxy-phenyl)-1,3-dihydro-indol-2-one], the EC50 is 1.4 µM. In addition, the Emax under setting [1] turned out to be 212%.

Consider `O=C1Nc2cc(Cl)c(-c3ccc(N4CCOCC4)cc3)cc2C1=C(O)c1ccno1` [Compound 59, 6-Chloro-3-[1-hydroxy-1-isoxazol-5-yl-methylidene]-5-(4-morpholin-4-yl-phenyl)-1,3-dihydro-indol-2-one], for which the EC50 came to 0.029 µM. Moreover, the Emax under setting [1] was determined as 245%.

As for `Cc1nocc1C(O)=C1C(=O)Nc2cc(Cl)c(-c3ccc(N4CCOCC4)cc3)cc21` [Compound 60, 6-Chloro-3-[1-hydroxy-1-(3-methyl-isoxazol-4-yl)-methylidene]-5-(4-morpholin-4-yl-phenyl)-1,3-dihydro-indol-2-one], the EC50 turned out to be 0.77 µM. The Emax under setting [1] was 298%.

`O=C1Nc2cc(Cl)c(-c3ccc(N4CCOCC4)cc3)cc2C1=C(O)c1cc(C2CC2)on1` [Compound 62, 6-Chloro-3-[1-(5-cyclopropyl-isoxazol-3-yl)-1-hydroxy-methylidene]-5-(4-morpholin-4-yl-phenyl)-1,3-dihydro-indol-2-one]: the EC50 was found to be 0.098 µM. In addition, under setting [1], the Emax was found to be 254%.

On to `Cc1cc(C(O)=C2C(=O)Nc3cc(Cl)c(-c4ccc(Cl)cc4)cc32)on1` [Compound 63, 6-Chloro-5-(4-chloro-phenyl)-3-[1-hydroxy-1-(3-methyl-isoxazol-5-yl)-methylidene]-1,3-dihydro-indol-2-one], for which the EC50 came to 4.02 µM. Also, under setting [1], the Emax worked out at 134%.

Consider `CCc1ccc(-c2cc3c(cc2Cl)NC(=O)C3=C(O)c2cc(C)no2)cc1` [Compound 64, 6-Chloro-5-(4-ethyl-phenyl)-3-[1-hydroxy-1-(3-methyl-isoxazol-5-yl)-methylidene]-1,3-dihydro-indol-2-one], for which the EC50 is 1.63 µM. Under setting [1], the Emax was 141%.

(Values after patent US10077237B2 (Sanofi, priority 2013, dated 2018).)
